IC50, half-life and CC50 data for 18 compounds are collected here from ChEMBL document CHEMBL5344473, “Inhibition of N-type calcium channels by phenoxyaniline and sulfonamide analogues” (RSC Med Chem, 2024).

SMILES strings stand for the structures. Where only a bound is given, the exact number is not on record here.

For series [1], the target named is Voltage-dependent N-type calcium channel subunit alpha-1B (Homo sapiens, UniProt Q00975). As to the kind of experiment: Inhibition of Cav2.2 in human SH-SY5Y cells assessed as inhibition of calcium influx measured for 300 secs in presence of Cav1 blocker, nifedipine by FLIPR assay. It is filed as cell-based.
The nature of a further series: in vitro. Particulars: Sprague-Dawley, rat, plasma.
A short description of series [2]: Cytotoxicity against African green monkey COS7 cells assessed as reduction in cell viability measured after 20 hrs by CellTiter-Blue reagent based fluorescence analysis. Particulars: chlorocebus aethiops.
The target in series [3] is Voltage-dependent T-type calcium channel subunit alpha-1H (Homo sapiens, UniProt O95180). As to the kind of experiment: Inhibition of human recombinant Cav3.2 alpha1 subunit expressed in HEK293T cells assessed as inhibition of calcium influx measured for 300 secs by FLIPR assay. It is filed as cell-based.
Voltage-dependent T-type calcium channel subunit alpha-1H, sequence (O95180 whole entry): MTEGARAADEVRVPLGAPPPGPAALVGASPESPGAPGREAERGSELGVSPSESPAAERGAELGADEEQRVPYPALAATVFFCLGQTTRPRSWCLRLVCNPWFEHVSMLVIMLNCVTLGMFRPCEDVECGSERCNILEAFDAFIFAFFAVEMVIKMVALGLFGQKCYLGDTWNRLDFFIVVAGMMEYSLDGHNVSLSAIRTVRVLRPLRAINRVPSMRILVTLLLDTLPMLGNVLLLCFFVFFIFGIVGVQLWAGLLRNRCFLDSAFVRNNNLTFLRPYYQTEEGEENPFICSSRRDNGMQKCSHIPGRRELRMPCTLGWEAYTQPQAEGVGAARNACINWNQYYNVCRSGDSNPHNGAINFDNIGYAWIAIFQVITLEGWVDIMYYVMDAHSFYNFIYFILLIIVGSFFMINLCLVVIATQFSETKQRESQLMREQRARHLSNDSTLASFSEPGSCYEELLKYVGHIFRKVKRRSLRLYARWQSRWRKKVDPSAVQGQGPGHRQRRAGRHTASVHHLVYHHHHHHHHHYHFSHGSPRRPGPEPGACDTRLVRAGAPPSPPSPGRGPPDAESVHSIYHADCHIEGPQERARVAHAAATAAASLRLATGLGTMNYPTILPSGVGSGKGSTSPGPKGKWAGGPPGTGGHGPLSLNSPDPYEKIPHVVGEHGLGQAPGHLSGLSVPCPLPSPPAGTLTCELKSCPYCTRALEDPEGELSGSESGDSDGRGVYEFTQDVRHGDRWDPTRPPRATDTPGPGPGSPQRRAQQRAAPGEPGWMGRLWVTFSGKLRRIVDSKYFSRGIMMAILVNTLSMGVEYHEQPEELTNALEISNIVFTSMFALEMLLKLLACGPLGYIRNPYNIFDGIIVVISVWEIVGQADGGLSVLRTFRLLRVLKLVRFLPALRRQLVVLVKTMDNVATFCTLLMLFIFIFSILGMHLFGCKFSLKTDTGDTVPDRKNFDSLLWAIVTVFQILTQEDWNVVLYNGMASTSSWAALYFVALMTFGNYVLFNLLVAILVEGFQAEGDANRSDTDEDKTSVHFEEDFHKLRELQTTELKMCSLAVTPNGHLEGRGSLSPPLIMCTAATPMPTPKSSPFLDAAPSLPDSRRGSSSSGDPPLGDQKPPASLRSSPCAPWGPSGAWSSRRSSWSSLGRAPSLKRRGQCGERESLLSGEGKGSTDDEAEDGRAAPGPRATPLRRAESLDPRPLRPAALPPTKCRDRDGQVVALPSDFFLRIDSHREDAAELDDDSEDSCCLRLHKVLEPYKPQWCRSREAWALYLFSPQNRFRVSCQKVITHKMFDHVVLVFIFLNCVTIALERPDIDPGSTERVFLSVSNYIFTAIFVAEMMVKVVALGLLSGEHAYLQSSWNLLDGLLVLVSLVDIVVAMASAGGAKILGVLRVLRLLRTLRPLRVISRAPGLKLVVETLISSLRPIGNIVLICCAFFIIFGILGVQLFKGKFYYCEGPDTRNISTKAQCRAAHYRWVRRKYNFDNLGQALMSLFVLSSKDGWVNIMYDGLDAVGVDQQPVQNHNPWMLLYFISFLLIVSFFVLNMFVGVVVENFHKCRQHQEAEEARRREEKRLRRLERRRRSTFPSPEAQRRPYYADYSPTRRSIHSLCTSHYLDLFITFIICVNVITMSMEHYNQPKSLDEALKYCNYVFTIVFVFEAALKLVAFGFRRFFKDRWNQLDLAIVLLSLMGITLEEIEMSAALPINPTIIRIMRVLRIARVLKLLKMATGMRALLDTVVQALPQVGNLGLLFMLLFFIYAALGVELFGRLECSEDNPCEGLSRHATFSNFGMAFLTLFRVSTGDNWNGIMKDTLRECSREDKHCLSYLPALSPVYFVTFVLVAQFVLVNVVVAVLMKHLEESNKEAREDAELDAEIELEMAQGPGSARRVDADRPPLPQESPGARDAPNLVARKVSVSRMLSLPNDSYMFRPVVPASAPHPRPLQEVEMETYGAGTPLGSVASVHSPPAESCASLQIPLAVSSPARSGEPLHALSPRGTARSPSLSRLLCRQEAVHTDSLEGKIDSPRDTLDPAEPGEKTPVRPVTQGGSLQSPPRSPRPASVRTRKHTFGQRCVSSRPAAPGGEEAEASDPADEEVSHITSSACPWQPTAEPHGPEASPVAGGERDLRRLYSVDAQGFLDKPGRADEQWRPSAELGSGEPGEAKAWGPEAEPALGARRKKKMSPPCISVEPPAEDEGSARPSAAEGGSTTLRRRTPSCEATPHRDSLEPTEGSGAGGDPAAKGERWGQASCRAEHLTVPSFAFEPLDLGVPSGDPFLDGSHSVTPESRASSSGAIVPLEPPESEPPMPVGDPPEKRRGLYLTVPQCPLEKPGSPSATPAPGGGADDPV

Voltage-dependent N-type calcium channel subunit alpha-1B, sequence (Q00975 whole entry): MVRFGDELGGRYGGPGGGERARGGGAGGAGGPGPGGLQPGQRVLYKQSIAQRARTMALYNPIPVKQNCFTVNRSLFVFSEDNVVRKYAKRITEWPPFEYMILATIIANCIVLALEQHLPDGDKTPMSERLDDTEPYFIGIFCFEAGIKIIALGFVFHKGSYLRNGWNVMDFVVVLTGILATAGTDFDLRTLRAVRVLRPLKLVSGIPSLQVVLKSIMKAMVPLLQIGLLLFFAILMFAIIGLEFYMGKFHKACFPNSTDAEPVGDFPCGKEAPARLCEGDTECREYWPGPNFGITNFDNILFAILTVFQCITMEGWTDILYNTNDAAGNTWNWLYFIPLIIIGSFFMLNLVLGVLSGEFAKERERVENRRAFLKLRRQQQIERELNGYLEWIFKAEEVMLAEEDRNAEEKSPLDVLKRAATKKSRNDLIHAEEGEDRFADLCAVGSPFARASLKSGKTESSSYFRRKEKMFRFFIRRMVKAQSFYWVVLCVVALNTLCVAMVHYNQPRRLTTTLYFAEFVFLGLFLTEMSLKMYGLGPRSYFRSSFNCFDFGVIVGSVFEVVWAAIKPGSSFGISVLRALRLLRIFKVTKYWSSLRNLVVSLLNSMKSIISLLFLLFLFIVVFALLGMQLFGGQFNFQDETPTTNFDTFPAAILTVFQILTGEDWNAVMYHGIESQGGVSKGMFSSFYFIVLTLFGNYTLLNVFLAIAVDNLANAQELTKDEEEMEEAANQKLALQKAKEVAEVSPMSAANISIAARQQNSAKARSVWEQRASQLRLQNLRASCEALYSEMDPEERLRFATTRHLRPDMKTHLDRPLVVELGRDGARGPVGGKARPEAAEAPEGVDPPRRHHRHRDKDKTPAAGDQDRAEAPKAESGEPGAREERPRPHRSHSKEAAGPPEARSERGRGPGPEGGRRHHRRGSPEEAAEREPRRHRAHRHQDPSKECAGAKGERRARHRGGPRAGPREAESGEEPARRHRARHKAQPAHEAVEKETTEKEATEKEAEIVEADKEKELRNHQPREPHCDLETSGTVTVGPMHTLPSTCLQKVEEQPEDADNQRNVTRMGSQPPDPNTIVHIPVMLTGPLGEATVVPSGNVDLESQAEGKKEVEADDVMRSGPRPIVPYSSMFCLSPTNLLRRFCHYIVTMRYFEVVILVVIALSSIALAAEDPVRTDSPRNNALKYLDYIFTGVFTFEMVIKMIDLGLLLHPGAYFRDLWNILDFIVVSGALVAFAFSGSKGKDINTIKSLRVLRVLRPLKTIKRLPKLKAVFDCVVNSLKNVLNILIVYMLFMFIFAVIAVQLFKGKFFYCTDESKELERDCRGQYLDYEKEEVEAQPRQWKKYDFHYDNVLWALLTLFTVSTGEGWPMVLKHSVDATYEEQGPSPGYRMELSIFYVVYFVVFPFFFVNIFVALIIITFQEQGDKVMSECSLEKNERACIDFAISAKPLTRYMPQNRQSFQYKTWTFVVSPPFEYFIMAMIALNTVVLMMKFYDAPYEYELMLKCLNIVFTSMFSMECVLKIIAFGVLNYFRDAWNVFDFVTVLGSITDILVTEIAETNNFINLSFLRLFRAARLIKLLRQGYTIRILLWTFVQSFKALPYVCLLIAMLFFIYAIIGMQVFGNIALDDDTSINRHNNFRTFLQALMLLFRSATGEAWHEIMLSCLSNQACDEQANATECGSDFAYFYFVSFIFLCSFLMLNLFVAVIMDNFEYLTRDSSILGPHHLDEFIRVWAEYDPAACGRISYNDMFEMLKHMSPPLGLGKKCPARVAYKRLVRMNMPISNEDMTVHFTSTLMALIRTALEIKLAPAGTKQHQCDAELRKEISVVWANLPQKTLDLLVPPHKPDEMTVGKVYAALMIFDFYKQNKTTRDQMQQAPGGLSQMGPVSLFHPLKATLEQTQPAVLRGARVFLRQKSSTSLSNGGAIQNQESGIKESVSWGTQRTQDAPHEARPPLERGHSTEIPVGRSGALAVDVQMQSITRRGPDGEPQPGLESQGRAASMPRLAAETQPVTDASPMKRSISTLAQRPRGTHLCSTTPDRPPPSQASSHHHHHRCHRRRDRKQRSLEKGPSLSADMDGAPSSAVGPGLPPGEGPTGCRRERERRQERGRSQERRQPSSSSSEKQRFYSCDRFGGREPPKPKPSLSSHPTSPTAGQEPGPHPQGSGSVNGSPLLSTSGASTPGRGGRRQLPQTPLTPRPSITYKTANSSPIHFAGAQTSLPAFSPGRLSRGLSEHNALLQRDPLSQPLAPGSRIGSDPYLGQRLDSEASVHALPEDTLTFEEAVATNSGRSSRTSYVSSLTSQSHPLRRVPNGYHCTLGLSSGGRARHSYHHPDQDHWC

As usually defined, the IC50 is the point on the concentration scale where inhibition reaches its midpoint. In the case of `CC(C)[C@H]1c2ccc(F)cc2CC[C@@]1(CCN(C)CCCc1nc2ccccc2[nH]1)OC(=O)C1CC1`, the IC50 in series [1] was 24.3 µM.

As usually defined, the half-life is how long it takes for the measured level to halve. In turn, `CN(C)CCCOc1ccc(C(=O)Nc2ccccc2Oc2ccc(F)cc2)cc1` gave a half-life at 150 µM in “in vitro” of around 1.5 h.

One may read the CC50 as the concentration giving 50% cytotoxicity. With `CN(C)CCCOc1ccc(C(=O)Nc2ccccc2Oc2ccccc2)cc1`, the 50% cytotoxic concentration (CC50) at 20 h in series [2] was above 100 µM.

`FC(F)(F)c1ccc(Oc2ccccc2NCc2ccc(OCCCN3CCCC3)cc2)cc1`: the IC50 was found to be 51 µM in series [1] and 110 µM in series [3].

Turning to `FC(F)(F)c1ccc(Oc2ccc(NCc3ccc(OCCCN4CCCC4)cc3)cc2)cc1`, the results for the IC50 in series [1] and in series [3] were 50 µM and 182 µM, respectively. Besides, in the series “in vitro”, the half-life at 150 µM was above 60 h.

Regarding `Fc1ccc(Oc2ccc(NCc3ccc(OCCCN4CCCC4)cc3)cc2)cc1`, the concentration for half-maximal inhibition (IC50) in series [1] is 48 µM; in series [3], 208 µM. Moreover, the half-life at 150 µM in the series “in vitro” was above 60 h.

`c1ccc(Oc2cccc(NCc3ccc(OCCCN4CCCCC4)cc3)c2)cc1`: the half-inhibitory concentration (IC50) in series [1] came out at 63 µM; in series [3], 200 µM. In the series “in vitro”, this compound yielded a half-life at 150 µM above 60 h.

Take `N#Cc1ccc(Oc2ccc(NCc3ccc(OCCCN4CCCC4)cc3)cc2)cc1`: the IC50 was 28 µM in series [1] and 146 µM in series [3]. For the same compound, in the series “in vitro”, the half-life at 150 µM was above 60 h.

With `c1ccc(Oc2cccc(NCc3ccc(OCCCn4ccnc4)cc3)c2)cc1`, the IC50 came to 68 µM in series [1] and 258 µM in series [3]. For the same compound, the half-life at 150 µM in “in vitro” was above 60 h.

Regarding `Fc1ccc(Oc2ccccc2NCc2ccc(OCCCn3ccnc3)cc2)cc1`, the IC50 in series [1] is 33 µM; in series [3], 196 µM. The compound further registered a half-life at 150 µM in “in vitro” above 60 h.

For `CN(C)CCCOc1ccc(S(=O)(=O)Nc2cccc(Oc3ccccc3)c2)cc1`, the IC50 in series [1] worked out at 10 µM; in series [3] it was 142 µM. Moreover, the half-life at 150 µM in the series “in vitro” was above 60 h.

For `CNCCCOc1ccc(CNc2ccccc2Oc2ccc(C(F)(F)F)cc2)cc1`, the IC50 in series [1] worked out at 58 µM; in series [3] it was 204 µM. This compound yielded a half-life at 150 µM in the series “in vitro” above 60 h.

As for `N#Cc1ccc(Oc2ccc(NCc3ccc(OCCCN4CCCCC4)cc3)cc2)cc1`, the results for the half-inhibitory concentration (IC50) in series [1] and in series [3] were 19 µM and 22 µM, respectively. In “in vitro”, the half-life at 150 µM was above 60 h.

As for `Fc1ccc(Oc2cccc(NCc3ccc(OCCCN4CCCCC4)cc3)c2)cc1`, the half-inhibitory concentration (IC50) in series [1] stood at 20 µM; in series [3] it was 292 µM. In the series “in vitro”, this compound came in with a half-life at 150 µM above 60 h.

On to `c1ccc(Oc2ccc(NCc3ccc(OCCCN4CCCC4)cc3)cc2)cc1`, for which the half-maximal inhibitory concentration (IC50) in series [1] was determined as 36 µM; in series [3] it was 201 µM. In “in vitro”, this compound showed a half-life at 150 µM above 60 h.

Consider `N#Cc1ccc(Oc2ccc(NCc3ccc(OCCCn4ccnc4)cc3)cc2)cc1`, for which the half-inhibitory concentration (IC50) in series [1] is 75 µM; in series [3], 371 µM. Further, in the series “in vitro”, the half-life at 150 µM is above 60 h.

For the compound `CN(C)CCCOc1ccc(CNc2ccc(Oc3ccc(F)cc3)cc2)cc1`, the IC50 in series [1] stood at 39 µM; in series [3], 227 µM. The half-life at 150 µM in the series “in vitro” was above 60 h.

With `Fc1ccc(Oc2ccc(NCc3ccc(OCCCn4ccnc4)cc3)cc2)cc1`, the IC50 was found to be 68 µM in series [1] and 337 µM in series [3]. In the series “in vitro”, the half-life at 150 µM was above 60 h.
